{"source": "patent US6590123B2", "about": "“Aminobenzoic acid derivatives having anti-tumorigenic activity, methods of making and using the same” (Mount Sinai School of Medicine of New York University, priority 1998, dated 2003)", "key": {"[1]": {"tested_on": "repolymerized microtubules", "experiment": "Inhibition of microtubule disassembly by spectrophotometry, cell free system", "type": "biochemical, calf", "conditions": "23 μM", "experimental": "Purified tubulin was purchased from Sigma (St. Louis, Mo.). The effects of compounds 6, 7, 8, 9, paclitaxel and vinblastine on the microtubule assembly-disassembly process were determined using conditions recommended by the vendor. For assembly inhibition, 100 μl tubulin solution (500-600 μg protein/ml) was mixed gently with 400 μl reaction buffer containing 0.1 M MES (2-[N-morpholino]ethane sulfonic acid), 1 mM EGTA ([…]-N,N,N′,N′-tetraacetic acid), 0.5 mM MgCl2, 0.1 mM EDTA and 2.5 M gycerol at 37° C. Compounds 6, 7, 8, and 9 were next added to each sample at final concentrations of 10, 10, 1 and 1 μg/ml, respectively. After adding GTP to each sample to a final concentration of 1 mM, the microtubule assembly process was monitored by measuring the change of absorbance (OD) at 350 nm on a spectrophotometer (Ultrospec III, Pharmacia LKB, Uppsala, Sweden). […] Changes of absorbance (OD) were monitored at 350 nm for 30 min until the OD values in the controls returned to the starting level, i.e., when the assembly-disassembly cycle was completed.\nPurified tubulin from calf brain was purchased from Sigma (St. Louis, Mo.). The effects of 3-BAABU (3-bromoacetoamido, benzoylurea) on the microtubule assembly-disassembly process were determined using the conditions recommended by the vendor. […]"}, "Purified tubulin": {"tested_on": "Purified tubulin", "experiment": "Inhibition of microtubule assembly by spectrophotometry, cell free system", "type": "biochemical, calf", "conditions": "23 μM", "experimental": "Purified tubulin was purchased from Sigma (St. Louis, Mo.). The effects of compounds 6, 7, 8, 9, paclitaxel and vinblastine on the microtubule assembly-disassembly process were determined using conditions recommended by the vendor. For assembly inhibition, 100 μl tubulin solution (500-600 μg protein/ml) was mixed gently with 400 μl reaction buffer containing 0.1 M MES (2-[N-morpholino]ethane sulfonic acid), 1 mM EGTA ([…]-N,N,N′,N′-tetraacetic acid), 0.5 mM MgCl2, 0.1 mM EDTA and 2.5 M gycerol at 37° C. Compounds 6, 7, 8, and 9 were next added to each sample at final concentrations of 10, 10, 1 and 1 μg/ml, respectively. After adding GTP to each sample to a final concentration of 1 mM, the microtubule assembly process was monitored by measuring the change of absorbance (OD) at 350 nm on a spectrophotometer (Ultrospec III, Pharmacia LKB, Uppsala, Sweden). A completed assembly process was observed within 40 min at room temperature. For disassembly inhibition, compounds 6, 7, 8, and 9 were added, at the above concentrations, to covets with repolymerized microtubules as described above, and incubated in melting ice. Changes of absorbance (OD) were monitored at 350 nm for 30 min until the OD values in the controls returned to the starting level, i.e., when the assembly-disassembly cycle was completed.\nPurified tubulin from calf brain was purchased from Sigma (St. Louis, Mo.). The effects of 3-BAABU (3-bromoacetoamido, benzoylurea) on the microtubule assembly-disassembly process were determined using the conditions recommended by the vendor. For assembly inhibition, 100 μl tubulin solution (500-600 μg protein/ml) was mixed gently with 400 μl reaction buffer containing 0.1 M MES, 1 mM EGTA, 0.5 mM MgCl2, 0.1 mM EDTA and 2.5 M glycerol at 37° C. 3-BAABU, paclitaxel or vinblastine were then added to each sample cuvet at final concentrations of 3.3, 23 or 22 μM, respectively. After adding GTP to each sample to a final concentration of 1 mM, the microtubule assembly process was monitored by measuring the change of absorbance (OD) every 5 min at 350 nm on a spectrophotometer (Ultrospec III, Pharmacia LKB, Uppsala, Sweden). A completed assembly process was observed within 40 min at room temperature. For disassembly inhibition, 3-BAABU (3.3 μM), paclitaxel (23 μM) or vinblastine (22 μM) was added to a cuvet with repolymerized microtubules according to the method described above, and incubated in melting ice. Changes of absorbance (OD) were monitored at 350 nm for 30 min until the OD values in the controls returned to the starting level, i.e., completion of the assembly-disassembly cycle. Solvent solutions were used as control and had no effect in either the assembly or disassembly process."}, "[2]": {"tested_on": "P338 leukemia lymphoma cells", "experiment": "Survival and ED50 in mice implanted i.p. with P338 lymphoma", "type": "in vivo, male C57 BL/6JX mice", "experimental": "FIG. 9 is a plot graph of the survival rate of male C57 BL/6JX mice implanted (i.p.) with P338 lymphoma, from 10 to 40 days after implantation. Two groups were used for the study: a control group of ten and a test group of ten that were treated with 20 mg/kg, (i.p.) of compound 8 at 2 and 8 days post-implantation.\n(§1) The in vivo efficacy of 3-BAABU and 3-IAABU of the present invention was asssessed in a murine model, along with known anti-tubule agents, vinblastine and paclitaxel, as a comparative standard. Approximately 10^6 P338 leukemia lymphoma cells/mouse were implanted intra-peritoneal (i.p.) into male C57 BL/6JX mice (Jackson Laboratories, N.Y.). On days 2 and 8 post-implantation, drugs were administrated i.p. at the following concentration ranges: 3-BAABU from 16.6 to 116 μmole/kg, 3-IAABU from 14.4 to 101 μmole/kg, vinblastine from 2.2 to 20 μmole/kg and paclitaxel from 28 to 57 μmole/kg.\n(§2) Both control and treated animals were examined for ascitic tumor burden daily for 35 days. […] Therapeutic index was defined as the ratio of LD50 (lethal dose) to ED50 (effective dose)."}, "[3]": {"experiment": "LD50 (lethal dose) in mice", "conditions": "mice, i.p.", "from_the_text": "as §1, §2"}}, "data": [{"smiles": "CC(=O)O[C@H]1C(=O)[C@@]2(C)[C@H]([C@H](OC(=O)c3ccccc3)[C@]3(O)C[C@H](OC(=O)[C@H](O)[C@@H](NC(=O)c4ccccc4)c4ccccc4)C(C)=C1C3(C)C)[C@]1(OC(C)=O)CO[C@@H]1C[C@@H]2O", "note": "[Paclitaxel, reference compound]", "values": [{"measurement": "inhibition of microtubule depolymerization", "setting": "[1]", "result": "significant inhibition"}, {"measurement": "activity on microtubular polymerization", "setting": "Purified tubulin", "result": "no activity"}, {"measurement": "Survival IL %", "setting": "[2]; P338 Lymphoma (i.p.), 30 mg/kg ip on days 2 & 8", "result": 10, "unit": "%"}, {"measurement": "Survival Mean ± SD", "setting": "[2]; P338 Lymphoma (i.p.), 30 mg/kg ip on days 2 & 8, control 18.6 ± 1.1", "result": "20.4 ± 3.2"}, {"measurement": "ED50", "setting": "[2]; P338 leukemia lymphoma i.p. in mice, drug i.p. on days 2 and 8", "result": 37, "unit": "µmol/kg"}, {"measurement": "LD50", "setting": "[3]", "result": 45, "unit": "µmol/kg"}]}]}
